Test results: patent publication US8609719B2, “Propargylated aminoindans, processes for preparation, and uses thereof” (priority 2006, dated 2013)

How the values were obtained:
MAO-A = molecular target: T1, MAO-A (Homo sapiens, UniProt P21397); assay: Decrease of plasma DHPG in patients (HPLC analysis of MAO-A inhibition); type: in vivo
T1 construct: from tissue; host or cells: patients in vivo; DHPG measured in plasma
T1 sequence (P21397 1-527): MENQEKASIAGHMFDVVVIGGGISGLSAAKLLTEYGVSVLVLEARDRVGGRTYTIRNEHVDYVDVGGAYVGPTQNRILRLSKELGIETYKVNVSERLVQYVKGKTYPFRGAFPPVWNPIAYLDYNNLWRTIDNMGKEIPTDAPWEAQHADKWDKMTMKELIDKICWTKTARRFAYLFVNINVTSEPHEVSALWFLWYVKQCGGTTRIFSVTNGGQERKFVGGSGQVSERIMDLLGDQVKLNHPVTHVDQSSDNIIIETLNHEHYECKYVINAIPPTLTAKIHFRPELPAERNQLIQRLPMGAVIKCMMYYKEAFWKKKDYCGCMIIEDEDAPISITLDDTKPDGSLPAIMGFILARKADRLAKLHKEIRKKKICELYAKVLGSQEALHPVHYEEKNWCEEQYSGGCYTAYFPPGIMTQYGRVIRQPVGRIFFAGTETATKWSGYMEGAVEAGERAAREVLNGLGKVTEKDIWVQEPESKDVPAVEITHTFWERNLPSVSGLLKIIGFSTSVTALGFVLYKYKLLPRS
Experimental: 8 patients, 7 female and 1 male, ages 62-81 with a median age of 68 and above with diagnosis of probable Alzheimer's disease according to DSM-IV (290.00 or 290.10) and NINCDS-ADRDA criteria were administered ladostigil tartrate according to the following schedule:
Decrease of 3,4-dihydroxyphenylglycol (“DHPG”) in plasma is indicative of monoamine oxidase inhibition, especially in the brain. DHPG plasma concentrations were measured in 6 of the aforementioned patients at baseline and at termination analysis, using HPLC equipped with an electrochemical detector.
The decrease in DHPG concentration in the six patients was determined. The average decrease in DHPG concentration was determined to be 57% with a standard deviation of 29.

Cholinesterase = Cholinesterase inhibition in patients at pre-dose; type: in vivo, human; settings: at maintenance and at termination analyses
Experimental: 8 patients, 7 female and 1 male, ages 62-81 with a median age of 68 and above with diagnosis of probable Alzheimer's disease according to DSM-IV (290.00 or 290.10) and NINCDS-ADRDA criteria were administered ladostigil tartrate according to the following schedule: […]

clinical = settings: human, in vivo; for Cmax / AUC / AUC(0-t): 100 mg, after ladostigil tartrate 100 mg twice daily; for AUC: AUC (M)

C#CCN[C@@H]1CCc2ccc(OC(=O)N(C)CC)cc21 [ladostigil, R(+)-6-(N-methyl, N-ethyl-carbamoyloxy)-N′-propargyl-1-aminoindan]
DHPG (T) (MAO-A; Patient 1, termination analysis Week 9 vs baseline): −63%
DHPG (T) (MAO-A; Patient 2, termination analysis Week 9 vs baseline): −86%
DHPG (T) (MAO-A; Patient 5, termination analysis Week 9 vs baseline): >−79%
DHPG (T) (MAO-A; Patient 6, termination analysis Week 9 vs baseline): −73%
DHPG (T) (MAO-A; Patient 7, termination analysis Week 9 vs baseline): −30%
DHPG (T) (MAO-A; Patient 8, termination analysis Week 9 vs baseline): −13%
Cholinesterase inhibition at pre-dose, in words (Cholinesterase): evident
half-life (clinical; both): 1.08 h
Cmax (clinical; both, Cmax (M), mean, mean of patients, maintenance analysis Week 4): 2.02e-06 M
Cmax (clinical; both, Cmax (T), mean, mean of patients, termination analysis Week 9): 1.88e-06 M
AUC (clinical; Patient 1, maintenance analysis Week 4): 314 ng·h/mL
AUC (clinical; Patient 2, maintenance analysis Week 4): 589 ng·h/mL
AUC (clinical; Patient 3, maintenance analysis Week 4): 1000 ng·h/mL
AUC (clinical; Patient 4, maintenance analysis Week 4): 927 ng·h/mL
AUC (clinical; Patient 5, maintenance analysis Week 4): 436 ng·h/mL
AUC (clinical; Patient 6, maintenance analysis Week 4): 551 ng·h/mL
AUC (clinical; Patient 7, maintenance analysis Week 4): 52 ng·h/mL
AUC (clinical; Patient 8, maintenance analysis Week 4): 500 ng·h/mL
AUC(0-t) (clinical; Patient 1, termination analysis Week 9): 246 ng·h/mL
AUC(0-t) (clinical; Patient 2, termination analysis Week 9): 2300 ng·h/mL
AUC(0-t) (clinical; Patient 3, termination analysis Week 9): 1450 ng·h/mL
AUC(0-t) (clinical; Patient 4, termination analysis Week 9): 482 ng·h/mL
AUC(0-t) (clinical; Patient 5, termination analysis Week 9): 398 ng·h/mL
AUC(0-t) (clinical; Patient 6, termination analysis Week 9): 901 ng·h/mL
AUC(0-t) (clinical; Patient 7, termination analysis Week 9): 118 ng·h/mL
AUC(0-t) (clinical; Patient 8, termination analysis Week 9): 350 ng·h/mL
Cmax (clinical; Cmax (M), Patient 1, maintenance analysis Week 4): 1.1e-06 M
Cmax (clinical; Cmax (M), Patient 2, maintenance analysis Week 4): 1.2e-06 M
Cmax (clinical; Cmax (M), Patient 3, maintenance analysis Week 4): 3.5e-06 M
Cmax (clinical; Cmax (M), Patient 4, maintenance analysis Week 4): 3.9e-06 M
Cmax (clinical; Cmax (M), Patient 5, maintenance analysis Week 4): 1.4e-06 M
Cmax (clinical; Cmax (M), Patient 6, maintenance analysis Week 4): 1.5e-06 M
Cmax (clinical; Cmax (M), Patient 7, maintenance analysis Week 4): 2e-07 M
Cmax (clinical; Cmax (M), Patient 8, maintenance analysis Week 4): 1.7e-06 M
Cmax (clinical; Cmax (T), Patient 1, termination analysis Week 9): 7e-07 M
Cmax (clinical; Cmax (T), Patient 2, termination analysis Week 9): 3.8e-06 M
Cmax (clinical; Cmax (T), Patient 3, termination analysis Week 9): 3.9e-06 M
Cmax (clinical; Cmax (T), Patient 4, termination analysis Week 9): 1.6e-06 M
Cmax (clinical; Cmax (T), Patient 5, termination analysis Week 9): 1e-06 M
Cmax (clinical; Cmax (T), Patient 6, termination analysis Week 9): 2.5e-06 M
Cmax (clinical; Cmax (T), Patient 7, termination analysis Week 9): 4e-07 M
Cmax (clinical; Cmax (T), Patient 8, termination analysis Week 9): 1.3e-06 M
